For experiment [1], the system named is sulfur-depleted C. reinhardtii cells. The experiment is described as follows: Effect of DCMU on the rate of H2 photoproduction by sulfur-depleted algal cultures. The format is cell-based, Chlamydomonas reinhardtii. The following applies: 10 μM DCMU added to culture after H2 gas production has started. As for the experimental part:
[…]. DCMU was added to treated cells at the arrow. Time zero in this case represents the time after H2 photoproduction starts.
Chlamydomonas reinhardtii strain Dangeard C137+ was grown in Tris-acetate-phosphate (TAP) medium (pH, 7.0) under continuous cool-white fluorescent light. Late-log cells were pelleted three times by centrifiguation and re-suspended in the same medium, from which inorganic sulfure (TAP-S) was omitted. The cells were incubated under continuous fluorescent illumation (200-250 μE m^−2 s^−1 PAR) in cylindrical reactor vessels (600 ml) with a rotating glass rod and Teflon impellers for mixing. A magnetic bar was attached at the bottom of the rod to couple it to an external stirring motor, and the rate of mixing was 60-80 rpm. The vessels were sealed using a silicon stopper with an outlet tube inserted through it for gas collection. The gas produced by the cells was collected in an inverted graduated glass cylinder by water displacement.
The direct involvement of PSII-catalyzed water oxidation activity by sulfur-deprived cells was further investigated using PAM fluorescence techniques.

Experiment [2] relates to C. reinhardtii cells. The experiment is described as follows: Inhibitor (KCN, SHAM) effect on rates of dark respiration during sulfur deprivation, Clark electrode. The format is cell-based, Chlamydomonas reinhardtii. The following applies: SHAM 4 mM, 5 min, 17% O2. On the procedure:
To determine the precise moment of H2-photoproduction onset, we measured the percentage of H2 contained in the gas phase (˜7 ml) on the top of the vessel immediately after anaerobiosis by gas chromatography. The dissolved O2 and redox potential of the medium were also measured. Chlorophyll concentrations were then obtained spectrophotometrically in 95% ethanol cell extracts. The capacity for respiratory O2 consumption was measured with a Clark electrode at 25° C. under aerobic conditions (17% or 170 μM O2) after removing the samples from the culture vessel and equilibrating them with air for 5 minutes.
The PQ pool is further oxidized by dissolved O2 through the action of PQ-oxidase. In the mitochondria, NADH and FADH2 generated by the Krebs Cycle serve as the source of electrons for a membrane-bound electron transport chain with O2 as the final electron acceptor. The cytochrome oxidase transduces the production of 3 ATP molecules per pair of electrons transported. […]. In both cases, O2 is the terminal electron acceptor. The mitochondrial cytochrome oxidase in C reinhardtii is inhibited by KCN, carbon monoxide, and sodium azide, while the alternative oxidase is specifically affected by salicylic hydroxamic acid (SHAM). The putative chloroplast PQ oxidase, on the other hand, is not inhibited by SHAM and only slightly affected by KCN. By measuring the influence of two inhibitors, KCN and SHAM, on the rates of dark respiration, we tried to estimate the relative contributions of each of the three oxidases at different times after sulfur deprivation. The actual contributions of the three oxidases to the scavenging O2 in situ depend on many factors such as their relative KM's for O2 and the rate of diffusion of O2 from the chloroplast to the mitochondria. Thus, the inhibitor studies that follow may not directly reflect the actual situation in the photobioreactor, but they do indicate that changes in the relative contribution of the three oxidases occur over the course of sulfure deprivation.
Contributions to the mitochondrial cytochrome oxidase [CO], mitochondrial alternative oxidase [AO], and chlororespiration [CR] to the total respiration rate of C. reinhardtii cells are also shown during sulfur-deprivation. […].

In the case of DCMU, the “decrease of the rate of H2 gas production” value in experiment [1] is given as 80%.
`O=C(NO)c1ccccc1O` [SHAM, salicylic hydroxamic acid]: the “% SHAM inhibition (% AO) of respiration” value is listed as 38% in experiment [2] (During H2 production); 100% in experiment [2] (End of H2 production); 13% in experiment [2] (Start of H2 production phase); 0% in experiment [2] (Start of anaerobic phase); 25% in experiment [2] (Start of sulfur depletion).

For the origin of these results see patent publication US7229785B2, “Fluorescence technique for on-line monitoring of state of hydrogen-producing microorganisms” (priority 2002, dated 2007).
